# In patent US8598173B2, “1-[(6,7-substituted alkoxyquinoxalinyl)aminocarbonyl]-4-(hetero)arylpiperazine derivatives for treating tumors” (Korea Research Institute of Chemical Technology, priority 2004, dated 2013):
# Like-named read-outs stand apart in the source and are kept apart here.
# Key:
# [1] = test system: HEK293 (human embryonic kidney); assay: Cell growth inhibition assay (SRB), HEK293; assay type: cell-based; conditions: SRB method, 96 hours incubation
# Method: (§1) OVCAR-3, MCF-7, PC3, HepG2, A549, HT-29 and MKN-45 were grown in RPMI1640 medium (Invitrogen, Carlsbad, Calif.) supplemented with 10% fetal bovine serum (‘FBS’), 1 mM sodium pyruvate, 10 mM HEPES and 100 U/ml penicillin and […] streptomycin (‘P/S’). MDA-MB-231, HCT116, UMRC2, Caki-1, PANC-1 and HEK293 cells were maintained in Dulbecco's modified Eagle's medium (‘DMEM’, Invitrogen) supplemented with 10% FBS, P/S, 10 mM HEPES and 2 mM L-glutamine. HUVEC was maintained in M199 supplemented with basic fibroblast growth factor (‘bFGF’) […] and FBS 20%. All cells were incubated at 37° C. under humidified 5% CO2.
# (§2) The growth inhibition of the substituted quinoxalin-piperazine compounds against a variety of human tumor cells was evaluated. The relative importance of particular substituent groups on the compounds was also studied. The substituted piperazine derivative compounds, prepared as described above, were tested, along with DMSO as a control.
# (§3) The growth inhibition assay of various compounds against human tumor cell lines was performed using the Sulforhodamine B (‘SRB’) method (Skehan et al., J. National Cancer Institute, 1990, 82, 1107-1112). […] Triplicate wells were used for each treatment. The cells were incubated with the various compounds for 96 hours at 37° C. in a humidified 5% CO2 atmosphere. After 96-hour incubation, cells were fixed with 10% trichloroacetic acid (‘TCA’), incubated for 1 hour at 4° C., and washed 3 times with tap water. Subsequently cells were stained with 0.4% sulforhodamine B in 1% acetic acid for 30 minutes, washed 4 times with 1% acetic acid, and air-dried again. After 5 minutes agitation in 10 mM Tris solution, the absorbance of each well was measured at 530 nm using Benchmark Plus Microplate reader (Bio-Rad Laboratories, Hercules, Calif.).
# (§4) To translate the OD530 values into the number of live cells in each well, the OD530 values were compared to those on standard OD530-versus-cell number curves generated for each cell line. The percent survival was calculated using the formula: % Survival=live cell number[test]/live cell number[control]×100
# (§5) The IC50 values were calculated by non-linear regression analysis.
# PANC-1 (pancreas) = assay: Cell growth inhibition assay (SRB), PANC-1; assay type: cell-based, human; conditions: Homo sapiens, SRB method, 96 hours incubation
# Method: as §1, §2, §3, §4, §5
# A549 (lung) = assay: Cell growth inhibition assay (SRB), A549; assay type: cell-based; conditions: Homo sapiens, SRB method, 96 hours incubation
# Method: as §1, §2, §3, §4, §5
# HT-29 (colon) = assay: Cell growth inhibition assay (SRB), HT-29; assay type: cell-based; conditions: Homo sapiens, SRB method, 96 hours incubation
# Method: as §1, §2, §3, §4, §5
# SK-OV-3 (ovary) = assay: Cell growth inhibition assay (SRB), SK-OV-3; assay type: cell-based; conditions: Homo sapiens, SRB method, 96 hours incubation
# Method: as §1, §2, §3, §4, §5
# MDA-MB-231 (breast) = assay: Cell growth inhibition assay (SRB), MDA-MB-231; assay type: cell-based, human; conditions: Homo sapiens, SRB method, 96 hours incubation
# Method: as §1, §2, §3, §4, §5
# [2] = test system: Huvec (human umbilical vein endothelial cells); assay: Cell growth inhibition assay (SRB), Huvec; assay type: cell-based; conditions: SRB method, 96 hours incubation
# Method: as §1, §2, §3, §4, §5
# UMRC2 (kidney) = assay: Cell growth inhibition assay (SRB), UMRC2; assay type: cell-based, human; conditions: Homo sapiens, SRB method, 96 hours incubation
# Method: as §1, §2, §3, §4, §5
# PC3 (prostate) = assay: Cell growth inhibition assay (SRB), PC3; assay type: cell-based; conditions: Homo sapiens, SRB method, 96 hours incubation
# Method: as §1, §2, §3, §4, §5
# Caki-1 (kidney) = assay: Cell growth inhibition assay (SRB), Caki-1; assay type: cell-based; conditions: Homo sapiens, SRB method, 96 hours incubation
# Method: as §1, §2, §3, §4, §5
# [3] = test system: MCF-7 (breast, hormone-dependent); assay: Cell growth inhibition assay (SRB), MCF-7; assay type: cell-based; conditions: Homo sapiens, MCF7, SRB method, 96 hours incubation
# Method: as §1, §2, §3, §4, §5
# MKN-45 (stomach) = assay: Cell growth inhibition assay (SRB), MKN-45; assay type: cell-based; conditions: Homo sapiens, SRB method, 96 hours incubation
# Method: as §1, §2, §3, §4, §5
# HCT116 (colon) = assay: Cell growth inhibition assay (SRB), HCT116; assay type: cell-based; conditions: Homo sapiens, HCT-116, SRB method, 96 hours incubation
# Method: as §1, §2, §3, §4, §5
# HepG2 (liver) = assay: Cell growth inhibition assay (SRB), HepG2; assay type: cell-based; conditions: Homo sapiens, SRB method, 96 hours incubation
# Method: as §1, §2, §3, §4, §5
# OVCAR-3 (ovary) = assay: Cell growth inhibition assay (SRB), OVCAR-3; assay type: cell-based; conditions: Homo sapiens, SRB method, 96 hours incubation
# Method: as §1, §2, §3, §4, §5
# [4] = PANC-1, read-out: Inhibition of cell growth (IC50, μM) by quinoxaline-piperazine compounds against human cancer cell lines: PANC-1
# [5] = A549, read-out: Inhibition of cell growth (IC50, μM) by quinoxaline-piperazine compounds against human cancer cell lines: A549
# [6] = HT-29, HT29, read-out: Inhibition of cell growth (IC50, μM) by quinoxaline-piperazine compounds against human cancer cell lines: HT29
# [7] = MDA-MB-231, read-out: Inhibition of cell growth (IC50, μM) by quinoxaline-piperazine compounds against human cancer cell lines: MDA-MB-231
# [8] = UMRC2, read-out: Inhibition of cell growth (IC50, μM) by quinoxaline-piperazine compounds against human cancer cell lines: UMRC2
# [9] = PANC-1 (pancreas), read-out: IC50, PANC-1
# [10] = A549 (lung), read-out: IC50, A549
# [11] = PC3 (prostate), read-out: IC50, PC3
# [12] = Caki-1 (kidney), read-out: IC50, Caki-1
# [13] = MCF-7 (breast, hormone-dependent), read-out: IC50, MCF-7
# [14] = HT-29 (colon), read-out: IC50, HT-29
# [15] = MKN-45 (stomach), read-out: IC50, MKN-45
# [16] = MDA-MB-231 (breast), read-out: IC50, MDA-MB-231
# [17] = HCT116 (colon), read-out: IC50, HCT116
# [18] = HepG2 (liver), read-out: IC50, HepG2
# [19] = OVCAR-3 (ovary), read-out: IC50, OVCAR-3
# [20] = UMRC2 (kidney), read-out: IC50, UMRC2
# [21] = HEK293 (human embryonic kidney), read-out: IC50, HEK293
# [22] = SK-OV-3 (ovary), read-out: IC50, SK-OV-3
Structure (SMILES),IC50 (PANC-1 (pancreas); [4]),IC50 (A549 (lung); [5]),IC50 (HT-29 (colon); [6]),IC50 (MDA-MB-231 (breast); [7]),IC50 (UMRC2 (kidney); [8]),IC50 (PANC-1 (pancreas); [9]),IC50 (A549 (lung); [10]),IC50 (PC3 (prostate); [11]),IC50 (Caki-1 (kidney); [12]),"IC50 [3, 13]",IC50 (HT-29 (colon); [14]),IC50 (MKN-45 (stomach); [15]),IC50 (MDA-MB-231 (breast); [16]),IC50 (HCT116 (colon); [17]),IC50 (HepG2 (liver); [18]),IC50 (OVCAR-3 (ovary); [19]),IC50 (UMRC2 (kidney); [20]),"IC50 [1, 21]",IC50 (SK-OV-3 (ovary); [22]),"IC50 ([2]; read-out: IC50, Huvec)",other results
"COc1cccc(N2CCN(C(=O)Nc3nc4cc(C)ccc4nc3OC)CC2)c1 [Compound 45, 1-[(2-Methoxy-6-methylquinoxalin-3-yl)aminocarbonyl]-4-(3-methoxyphenyl)piperazine]",1.31 µM,0.25 µM,0.05 µM,0.27 µM,0.45 µM,–,–,–,–,–,–,–,–,–,–,–,–,–,–,–,"IC50 ([1]; Homo sapiens, Hek293, read-out: Inhibition of cell growth (IC50, μM) by quinoxaline-piperazine compounds against human cancer cell lines: Hek293): 0.5 µM; IC50 (SK-OV-3 (ovary); SK-OV-3, read-out: Inhibition of cell growth (IC50, μM) by quinoxaline-piperazine compounds against human cancer cell lines: SK-OV-3): 1 µM; IC50 ([2]; read-out: Inhibition of cell growth (IC50, μM) by quinoxaline-piperazine compounds against human cancer cell lines: Huvec): 0.5 µM"
"COc1cc(OC)cc(N2CCN(C(=O)Nc3nc4ccc(C)cc4nc3OC)CC2)c1 [Compound 131, 1-[(3-Methoxy-6-methylquinoxalin-2-yl)aminocarbonyl]-4-(3,5-dimethoxyphenyl)piperazine]",–,–,–,–,–,0.36 µM,0.24 µM,0.35 µM,0.19 µM,0.24 µM,0.34 µM,0.22 µM,0.16 µM,0.25 µM,0.23 µM,0.14 µM,0.23 µM,–,–,–,–
"COc1cc(OC)cc(N2CCN(C(=O)Nc3nc4ccc(Cl)cc4nc3OC)CC2)c1 [Compound 110, 1-[(6-Chloro-3-methoxyquinoxalin-2-yl)aminocarbonyl]-4-(3,5-dimethoxyphenyl)piperazine]",–,–,–,–,–,0.28 µM,0.24 µM,0.27 µM,0.18 µM,0.21 µM,0.25 µM,0.2 µM,0.18 µM,0.23 µM,0.21 µM,0.13 µM,0.21 µM,–,–,–,–
"COc1ccc2nc(NC(=O)N3CCN(c4cc(C)cc(C)c4)CC3)c(OC)nc2c1 [Compound 157, 1-[(3,6-Dimethoxyquinoxalin-2-yl)aminocarbonyl]-4-(3,5-dimethylphenyl)piperazine]",–,–,–,–,–,0.47 µM,2.5 µM,0.58 µM,0.3 µM,0.21 µM,0.78 µM,0.27 µM,0.41 µM,0.38 µM,0.56 µM,0.29 µM,0.27 µM,0.53 µM,0.5 µM,0.15 µM,–
"COc1cc(OC)cc(N2CCN(C(=O)Nc3nc4cc(C)ccc4nc3OC)CC2)c1 [Compound 47, 1-[(2-Methoxy-6-methylquinoxalin-3-yl)aminocarbonyl]-4-(3,5-dimethoxyphenyl)piperazine]",0.07 µM,0.055 µM,0.048 µM,0.032 µM,0.039 µM,–,–,–,–,–,–,–,–,–,–,–,–,–,–,–,"IC50 (PC3 (prostate); PC-3, read-out: Inhibition of cell growth (IC50, μM) by quinoxaline-piperazine compounds against human cancer cell lines: PC-3): 0.063 µM; IC50 (Caki-1 (kidney); Caki-1, read-out: Inhibition of cell growth (IC50, μM) by quinoxaline-piperazine compounds against human cancer cell lines: Caki-1): 0.029 µM; IC50 ([3]; read-out: Inhibition of cell growth (IC50, μM) by quinoxaline-piperazine compounds against human cancer cell lines: MCF7): 0.063 µM; IC50 (MKN-45 (stomach); MKN-45, MKN45, read-out: Inhibition of cell growth (IC50, μM) by quinoxaline-piperazine compounds against human cancer cell lines: MKN45): 0.04 µM; IC50 (HCT116 (colon); HCT116, read-out: Inhibition of cell growth (IC50, μM) by quinoxaline-piperazine compounds against human cancer cell lines: HCT116): 0.047 µM; IC50 (HepG2 (liver); HepG2, read-out: Inhibition of cell growth (IC50, μM) by quinoxaline-piperazine compounds against human cancer cell lines: HepG2): 0.045 µM; IC50 (OVCAR-3 (ovary); OVCAR-3, OVCAR3, read-out: Inhibition of cell growth (IC50, μM) by quinoxaline-piperazine compounds against human cancer cell lines: OVCAR3): 0.023 µM"
"COc1nc2cc(F)ccc2nc1NC(=O)N1CCN(c2cc(C)cc(C)c2)CC1 [Compound 94, 1-[(6-Fluoro-3-methoxyquinoxalin-2-yl)aminocarbonyl]-4-(3,5-dimethylphenyl)piperazine]",–,–,–,–,–,0.56 µM,0.42 µM,0.7 µM,0.33 µM,0.36 µM,0.89 µM,0.25 µM,0.41 µM,0.4 µM,0.48 µM,0.29 µM,0.32 µM,0.57 µM,0.5 µM,0.16 µM,–
